The source of these data is patent publication US7238701B2, “Substituted tetrahydrobenzothienopyrimidinamine compounds useful for treating hyper-proliferative disorders” (Bayer Pharmaceuticals Corporation, priority 2003, dated 2007).

Some results are limits rather than exact numbers.

Assay [1] concerns A431cells (human epidermoid carcinoma). Put plainly: In vitro tumor cell proliferation assay (Cell Titer-Glo luminescent cell viability), A431 cells. It counts as cell-based. Particulars: A-431, 72 h, 72 hours drug exposure, 10% Fetal Bovine Serum, ATP luminescence readout, read-out: IC50 (50% inhibition of cell proliferation). In outline:
(§1)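 ATP luminescence (CellTiter-Glo) measured proliferation after 72 h compound exposure at 37 °C, giving IC50 values. Serial dilutions spanning 64 pM–100 μM in 0.1% DMSO were applied one day after plating 2.5×10^3 cells/well in RPMI plus 10% fetal bovine serum.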

Assay [2] relates to BT474 (human breast carcinoma). Put plainly: In vitro tumor cell proliferation assay (Cell Titer-Glo luminescent cell viability), BT474 cells. It counts as cell-based. The conditions noted are these: BT-474, 72 hours drug exposure, 10% Fetal Bovine Serum, ATP luminescence readout, read-out: IC50 (50% inhibition of cell proliferation). A digest of the protocol:
as §1
On the technique in general: ATP-based viability assays read luminescence as a measure of living cells.

Take `Cc1ccc(Oc2ccc(Nc3ncnc4sc5c(c34)CCC(CCOS(C)(=O)=O)C5)cc2C)cn1` (centres unmarked) [Example 215, 2-[4-({3-methyl-4-[(6-methylpyridin-3-yl)oxy]phenyl}amino)-5,6,7,8-tetrahydro[1]benzothieno[2,3-d]pyrimidin-7-yl]ethyl methanesulfonate]: the IC50 in assay [1] is below 50 µM; in assay [2], below 5 µM.
`COCCNCCC1CCc2c(sc3ncnc(Nc4ccc(Oc5ccc(C)nc5)c(C)c4)c23)C1` (centres unmarked) [Example 216, 7-{2-[(2-methoxyethyl)amino]ethyl}-N-{3-methyl-4-[(6-methylpyridin-3-yl)oxy]phenyl}-5,6,7,8-tetrahydro[1]benzothieno[2,3-d]pyrimidin-4-amine]: the IC50 in assay [1] is below 50 µM; in assay [2] it was below 5 µM.
On to `Cc1ccc(Oc2ccc(Nc3ncnc4sc5c(c34)CCC(CCNCCO)C5)cc2C)cn1` (centres unmarked) [Example 217, 2-({2-[4-({3-methyl-4-[(6-methylpyridin-3-yl)oxy]phenyl}amino)-5,6,7,8-tetrahydro[1]benzothieno[2,3-d]pyrimidin-7-yl]ethyl}amino)ethanol], for which the IC50 in assay [1] is below 50 µM; in assay [2], below 5 µM.
In the same order, the values of `COCCN(C)CCC1CCc2c(sc3ncnc(Nc4ccc(Oc5ccc(C)nc5)c(C)c4)c23)C1` (centres unmarked) [Example 218, 7-{2-[(2-methoxyethyl)(methyl)amino]ethyl}-N-{3-methyl-4-[(6-methylpyridin-3-yl)oxy]phenyl}-5,6,7,8-tetrahydro[1]benzothieno[2,3-d]pyrimidin-4-amine] are below 50 µM and below 5 µM.
As to `Cc1ccc(Oc2ccc(Nc3ncnc4sc5c(c34)CCC(CCNCCS(C)(=O)=O)C5)cc2C)cn1` (centres unmarked) [Example 219, N-{3-methyl-4-[(6-methylpyridin-3-yl)oxy]phenyl}-7-(2-{[2-(methylsulfonyl)ethyl]amino}ethyl)-5,6,7,8-tetrahydro[1]benzothieno[2,3-d]pyrimidin-4-amine], the IC50 in assay [1] was below 50 µM; in assay [2] it was below 5 µM.
In the same order, the values of `Cc1ccc(Oc2ccc(Nc3ncnc4sc5c(c34)CCC(CCNCCN3CCOCC3)C5)cc2C)cn1` (centres unmarked) [Example 220, N-{3-methyl-4-[(6-methylpyridin-3-yl)oxy]phenyl}-7-{2-[(2-morpholin-4-ylethyl)amino]ethyl}-5,6,7,8-tetrahydro[1]benzothieno[2,3-d]pyrimidin-4-amine] are below 50 µM and below 5 µM.
Regarding `Cc1ccc(Oc2ccc(Nc3ncnc4sc5c(c34)CCC(CCN3CCCC3)C5)cc2C)cn1` (centres unmarked) [Example 221, N-{3-methyl-4-[(6-methylpyridin-3-yl)oxy]phenyl}-7-(2-pyrrolidin-1-ylethyl)-5,6,7,8-tetrahydro[1]benzothieno[2,3-d]pyrimidin-4-amine], the IC50 in assay [1] and in assay [2] was below 5 µM each time.
In the case of `Cc1ccc(Oc2ccc(Nc3ncnc4sc5c(c34)CCC(CCN(C)CCO)C5)cc2C)cn1` (centres unmarked) [Example 222, 2-(methyl{2-(4-({3-methyl-4-[(6-methylpyridin-3-yl)oxy]phenyl}amino)-5,6,7,8-tetrahydro[1]benzothieno[2,3-d]pyrimidin-7-yl]ethyl}amino)ethanol], the IC50 in assay [1] and in assay [2] was below 5 µM each time.
As for `Cc1ccc(Oc2ccc(Nc3ncnc4sc5c(c34)CCC(CCN3CCC(N(C)C)C3)C5)cc2C)cn1` (centres unmarked) [Example 223, 7-{2-[3-(dimethylamino)pyrrolidin-1-yl]ethyl}-N-{3-methyl-4-[(6-methylpyridin-3-yl)oxy]phenyl}-5,6,7,8-tetrahydro[1]benzothieno[2,3-d]pyrimidin-4-amine], the IC50 in assay [1] and in assay [2] was below 5 µM in each case.
On to `Cc1ccc(Oc2ccc(Nc3ncnc4sc5c(c34)CCC(CCN3CCN(C)CC3)C5)cc2C)cn1` (centres unmarked) [Example 224, N-{3-methyl-4-[(6-methylpyridin-3-yl)oxy]phenyl}-7-[2-(4-methylpiperazin-1-yl)ethyl]-5,6,7,8-tetrahydro[1]benzothieno[2,3-d]pyrimidin-4-amine], for which the IC50 in assay [1] and in assay [2] was below 5 µM each time.
Take `Cc1ccc(Oc2ccc(Nc3ncnc4sc5c(c34)CCC(CCN3CCOCC3)C5)cc2C)cn1` (centres unmarked) [Example 225, N-{3-methyl-4-[(6-methylpyridin-3-yl)oxy]phenyl}-7-(2-morpholin-4-ylethyl)-5,6,7,8-tetrahydro[1]benzothieno[2,3-d]pyrimidin-4-amine]: the IC50 is below 50 µM in assay [1] and below 5 µM in assay [2].
Consider `Cc1ccc(Oc2ccc(Nc3ncnc4sc5c(c34)CCC(CCN(C)C)C5)cc2C)cn1` (centres unmarked) [Example 226], for which the IC50 in assay [1] is below 50 µM; in assay [2], below 5 µM.
As for `CN1CCN(CCC2CCc3c(sc4ncnc(Nc5ccc6c(cnn6Cc6ccccc6)c5)c34)C2)CC1` (centres unmarked) [Example 227, N-(1-benzyl-1H-indazol-5-yl)-7-[2-(4-methylpiperazin-1-yl)ethyl]-5,6,7,8-tetrahydro[1]benzothieno[2,3-d]pyrimidin-4-amine], the IC50 was below 50 µM in assay [1] and below 5 µM in assay [2].
For `CN(C)CCC1CCc2c(sc3ncnc(Nc4ccc5c(cnn5Cc5ccccc5)c4)c23)C1` (centres unmarked) [Example 228, N-(1-benzyl-1H-indazol-5-yl)-7-[2-(dimethylamino)ethyl]-5,6,7,8-tetrahydro[1]benzothieno[2,3-d]pyrimidin-4-amine], the IC50 was below 50 µM in assay [1] and below 5 µM in assay [2].
On to `CNCCC1CCc2c(sc3ncnc(Nc4ccc5c(cnn5Cc5ccccc5)c4)c23)C1` (centres unmarked) [Example 229, N-(1-benzyl-1H-indazol-5-yl)-7-[2-(methylamino)ethyl]-5,6,7,8-tetrahydro[1]benzothieno[2,3-d]pyrimidin-4-amine], for which the results for the IC50 in assay [1] and in assay [2] were below 50 µM and below 5 µM, respectively.
As for `Cc1ccc(Oc2ccc(Nc3ncnc4sc5c(c34)CCC(CCNCCN(C)C)C5)cc2C)cn1` (centres unmarked) [Example 230, N,N-dimethyl-N′-{2-[4-({3-methyl-4-[(6-methylpyridin-3-yl)oxy]phenyl}amino)-5,6,7,8-tetrahydro[1]benzothieno[2,3-d]pyrimidin-7-yl]ethyl}ethane-1,2-diamine], the IC50 in assay [1] and in assay [2] was below 5 µM throughout.
As to `Cc1ccc(Oc2ccc(Nc3ncnc4sc5c(c34)CCC(CCN(CCO)CCO)C5)cc2C)cn1` (centres unmarked) [Example 231, 2,2′-({2-[4-({3-methyl-4-[(6-methylpyridin-3-yl)oxy]phenyl}amino)-5,6,7,8-tetrahydro[1]benzothieno[2,3-d]pyrimidin-7-yl]ethyl}imino)diethanol], the results for the IC50 in assay [1] and in assay [2] were below 50 µM and below 5 µM, respectively.
In the same order, the values of `CNCCC1CCc2c(sc3ncnc(Nc4ccc(Oc5ccc(C)nc5)c(C)c4)c23)C1` (centres unmarked) [Example 232, 7-[2-(methylamino)ethyl]-N-{3-methyl-4-[(6-methylpyridin-3-yl)oxy]phenyl}-5,6,7,8-tetrahydro[1]benzothieno[2,3-d]pyrimidin-4-amine] are below 50 µM and below 5 µM.
Regarding `Cc1ccc(Oc2ccc(Nc3ncnc4sc5c(c34)CCC(CCN3CCC(O)C3)C5)cc2C)cn1` (centres unmarked) [Example 233, 1-{2-[4-({3-methyl-4-[(6-methylpyridin-3-yl)oxy]phenyl}amino)-5,6,7,8-tetrahydro[1]benzothieno[2,3-d]pyrimidin-7-yl]ethyl}pyrrolidin-3-ol], the IC50 in assay [1] is below 50 µM; in assay [2], below 5 µM.
In the case of `Cc1ccc(Oc2ccc(Nc3ncnc4sc5c(c34)CCC(CCN3CCCC3C)C5)cc2C)cn1` (centres unmarked) [Example 234, N-{3-methyl-4-[(6-methylpyridin-3-yl)oxy]phenyl}-7-[2-(2-methylpyrrolidin-1-yl)ethyl]-5,6,7,8-tetrahydro[1]benzothieno[2,3-d]pyrimidin-4-amine], the IC50 was below 50 µM in assay [1] and below 5 µM in assay [2].
Consider `Cc1ccc(Oc2ccc(Nc3ncnc4sc5c(c34)CCC(CCN3C(C)CCC3C)C5)cc2C)cn1` (centres unmarked) [Example 235], for which the IC50 is below 50 µM in assay [1] and below 5 µM in assay [2].
On to `Cc1ccc(Oc2ccc(Nc3ncnc4sc5c(c34)CCC(CCN3CCCCC3)C5)cc2C)cn1` (centres unmarked) [Example 236, N-{3-methyl-4-[(6-methylpyridin-3-yl)oxy]phenyl}-7-(2-piperidin-1-ylethyl)-5,6,7,8-tetrahydro[1]benzothieno[2,3-d]pyrimidin-4-amine], for which the IC50 in assay [1] is below 50 µM; in assay [2], below 5 µM.
Regarding `OC1CCN(CCC2CCc3c(sc4ncnc(Nc5ccc6c(cnn6Cc6ccccc6)c5)c34)C2)C1` (centres unmarked) [Example 237, 1-(2-{4-[(1-benzyl-1H-indazol-5-yl)amino]-5,6,7,8-tetrahydro[1]benzothieno[2,3-d]pyrimidin-7-yl}ethyl)pyrrolidin-3-ol], the figures for the IC50 in assay [1] and in assay [2] were below 50 µM and below 5 µM, respectively.
On to `CC1CCCN1CCC1CCc2c(sc3ncnc(Nc4ccc5c(cnn5Cc5ccccc5)c4)c23)C1` (centres unmarked) [Example 238, N-(1-benzyl-1H-indazol-5-yl)-7-[2-(2-methylpyrrolidin-1-yl)ethyl]-5,6,7,8-tetrahydro[1]benzothieno[2,3-d]pyrimidin-4-amine], for which the IC50 in assay [1] was below 50 µM; in assay [2], below 5 µM.
Take `c1ccc(Cn2ncc3cc(Nc4ncnc5sc6c(c45)CCC(CCN4CCCCC4)C6)ccc32)cc1` (centres unmarked) [Example 239, (1-Benzyl-1H-indazol-5-yl)-[7-(2-piperidine-1-yl-ethyl)-5,6,7,8-tetrahydro-benzo[4,5]thieno[2,3-d]pyrimidin-4-yl]-amine]: the results for the IC50 in assay [1] and in assay [2] were below 50 µM and below 5 µM, respectively.
